Data taken from patent US5041567A, “Antibacterial monic acid derivatives” (Beecham Group plc, priority 1982, dated 1991).
Values after ≈ are worked out from the molar mass of the structure shown. Like-named read-outs stand apart in the source and are kept apart here.

Key:
[1] = tested on: M. suipneumoniae ATCC 25095; experiment: MIC against mycoplasma in vitro; assay type: cell-based; conditions: Mesomycoplasma hyopneumoniae, ATCC25095, 144 h; M. suipneumoniae ATCC 25095; 6 days, 37° C.; read-out: MIC
[2] = tested on: S. dublin S7; experiment: MIC against veterinary bacteria in vitro; conditions: Salmonella enterica, S7, 18 h
Method: (§1) The activity of the compounds of the Examples against various veterinarily important bacteria, was assayed in vitro using two-fold serial dilutions in Diagnostic Sensitivity Test Agar inoculated with 10^4 organisms.

[3] = tested on: Bord. bronchiseptica B08; experiment: MIC against veterinary bacteria in vitro; conditions: Bordetella bronchiseptica, B08, 18 h
Method: as §1

[4] = tested on: M. suipneumoniae TAM 6N; experiment: MIC against mycoplasma in vitro; assay type: cell-based; conditions: Mesomycoplasma hyopneumoniae, TAM6N, 144 h; M. suipneumoniae TAM 6N; 6 days, 37° C.; read-out: MIC
[5] = tested on: Staph. aureus Oxford; experiment: MIC against veterinary bacteria in vitro; conditions: Staphylococcus aureus, 18 h
Method: as §1

[6] = tested on: Strep. spp. 64/848-C; experiment: MIC against human bacteria in vitro; assay type: cell-based
[7] = tested on: M. bovigenitalium ATCC 14173; experiment: MIC against mycoplasma in vitro; assay type: cell-based; conditions: 144 h; M. bovigenitalium ATCC 14173; 6 days, 37° C.; read-out: MIC
[8] = tested on: Sarcina lutea 8340; experiment: MIC against human bacteria in vitro; assay type: cell-based
[9] = tested on: Erysipelothrix rhusiopathiae NCTC 8163; experiment: MIC against veterinary bacteria in vitro; conditions: Erysipelothrix rhusiopathiae, NCTC8163, 18 h
Method: as §1

[10] = tested on: Staph. aureus 152 (pen. sens); experiment: MIC against veterinary bacteria in vitro; conditions: Staphylococcus aureus, 18 h
Method: as §1

[11] = tested on: M. gallisepticum S6; experiment: MIC against mycoplasma in vitro; assay type: cell-based; conditions: Mycoplasmoides gallisepticum, 144 h; M. gallisepticum S6; 6 days, 37° C.; read-out: MIC
[12] = tested on: Pasteurella multocida 1633; experiment: MIC against human bacteria in vitro; assay type: cell-based
[13] = tested on: E. coli ESS; experiment: MIC against human bacteria in vitro; assay type: cell-based; conditions: Escherichia coli
[14] = tested on: Past. multocida PA2; experiment: MIC against veterinary bacteria in vitro; conditions: Pasteurella multocida, PA2, 18 h
Method: as §1

[15] = tested on: Haemophilus influenzae Wy21; experiment: MIC against human bacteria in vitro; assay type: cell-based
[16] = tested on: M. hyorhinis ATCC 23234; experiment: MIC against mycoplasma in vitro; assay type: cell-based; conditions: Mesomycoplasma hyorhinis, ATCC23234, 144 h; M. hyorhinis ATCC 23234; 6 days, 37° C.; read-out: MIC
[17] = tested on: E. coli NCTC 10418; experiment: MIC against veterinary bacteria in vitro; conditions: Escherichia coli, NCTC10418, 18 h
Method: as §1

[18] = tested on: S. typhimurium S18; experiment: MIC against veterinary bacteria in vitro; conditions: Salmonella enterica, TYPHIMURIUM, 18 h
Method: as §1

[19] = tested on: M. suipneumoniae HK(2); experiment: MIC against mycoplasma in vitro; assay type: cell-based; conditions: Mesomycoplasma hyopneumoniae, 144 h; M. suipneumoniae HK(2); 6 days, 37° C.; read-out: MIC
[20] = tested on: Strep. pneumoniae CN33; experiment: MIC against human bacteria in vitro; assay type: cell-based; conditions: Streptococcus pneumoniae; Strep. pneumoniae CN33; 5% chocolated horse blood agar, 18 hours; read-out: MIC
[21] = tested on: Strep. agalactiae 2788-B; experiment: MIC against human bacteria in vitro; assay type: cell-based; conditions: Streptococcus agalactiae; Strep. agalactiae 2788-B; 5% chocolated horse blood agar, 18 hours; read-out: MIC
[22] = tested on: Staph. aureus W2827; experiment: MIC against human bacteria in vitro; assay type: cell-based; conditions: Staphylococcus aureus; Staph. aureus W2827; 5% chocolated horse blood agar, 18 hours; read-out: MIC
[23] = tested on: M. suipneumoniae UCD 1; experiment: MIC against mycoplasma in vitro; assay type: cell-based; conditions: Mesomycoplasma hyopneumoniae, UCD1, 144 h; M. suipneumoniae UCD 1; 6 days, 37° C.; read-out: MIC
[24] = tested on: Ps. aeruginosa NCTC 10662; experiment: MIC against human bacteria in vitro; assay type: cell-based; conditions: Pseudomonas aeruginosa
[25] = tested on: M. suipneumoniae NB12; experiment: MIC against mycoplasma in vitro; assay type: cell-based; conditions: Mesomycoplasma hyopneumoniae, 144 h; M. suipneumoniae NB12; Friis broth, 0.9% agarose, 6 days, 37° C.; read-out: MIC
[26] = tested on: M. suipneumoniae JF 435; experiment: MIC against mycoplasma in vitro; assay type: cell-based; conditions: Mesomycoplasma hyopneumoniae, JF435, 144 h; M. suipneumoniae JF 435; 6 days, 37° C.; read-out: MIC
[27] = tested on: Staph. aureus Russell; experiment: MIC against human bacteria in vitro; assay type: cell-based; conditions: Staphylococcus aureus; Staph. aureus Russell; 5% chocolated horse blood agar, 18 hours; read-out: MIC
[28] = tested on: M. suipneumoniae MS 16; experiment: MIC against mycoplasma in vitro; assay type: cell-based; conditions: Mesomycoplasma hyopneumoniae, MS16, 144 h; M. suipneumoniae MS 16; 6 days, 37° C.; read-out: MIC
[29] = tested on: E. coli E1; experiment: MIC against veterinary bacteria in vitro; conditions: Escherichia coli, E1, 18 h
Method: as §1

[30] = tested on: M. pneumoniae ATCC 15492; experiment: MIC against mycoplasma in vitro; assay type: cell-based; conditions: Mycoplasmoides pneumoniae, ATCC15492, 144 h; M. pneumoniae ATCC 15492; 6 days, 37° C.; read-out: MIC
[31] = tested on: Bord. bronchiseptica B09; experiment: MIC against veterinary bacteria in vitro; conditions: Bordetella bronchiseptica, B09, 18 h
Method: as §1

[32] = tested on: M. suipneumoniae NCTC 10110; experiment: MIC against mycoplasma in vitro; assay type: cell-based; conditions: Mesomycoplasma hyopneumoniae, NCTC10110, 144 h; M. suipneumoniae NCTC 10110; 6 days, 37° C.; read-out: MIC
[33] = tested on: Strep. suis (group D) SPS11; experiment: MIC against veterinary bacteria in vitro; conditions: Streptococcus suis, 18 h
Method: as §1

[34] = tested on: Strep. agalactiae SPA1; experiment: MIC against veterinary bacteria in vitro; conditions: Streptococcus agalactiae, SPA1, 18 h
Method: as §1

Row | Compound | MIC [1] [µg/mL] | MIC [2] [µg/mL] | MIC [3] [µg/mL] | MIC [4] [µg/mL] | MIC [5] [µg/mL] | MIC [7] [µg/mL] | MIC [9] [µg/mL] | MIC [10] [µg/mL] | MIC [11] [µg/mL] | MIC [14] [µg/mL] | MIC [16] [µg/mL] | MIC [17] [µg/mL] | MIC [18] [µg/mL] | MIC [19] [µg/mL] | MIC [20] [µg/mL] | MIC [21] [µg/mL] | MIC [22] [µg/mL] | MIC [23] [µg/mL] | MIC [25] [µg/mL] | MIC [26] [µg/mL] | also measured
1 | COC(=O)CCCCCCCc1cnc(/C=C(\C)C[C@@H]2OC[C@H](C[C@@H]3O[C@H]3[C@@H](C)[C@H](C)O)[C@@H](O)[C@H]2O)o1 [Example 7, 5-(7-Methoxycarbonylheptyl)-2-(1-normon-2-yl)oxazole A] | 10 (≈ 19.1 µM) | > 80 | 40 (≈ 76.4 µM) | > 10 | 5 (≈ 9.55 µM) | 1 (≈ 1.91 µM) | > 80 | 5 (≈ 9.55 µM) | > 10 | 20 (≈ 38.2 µM) | 10 (≈ 19.1 µM) | > 80 | > 80 | > 10 | 25 (≈ 47.7 µM) | 25 (≈ 47.7 µM) | 25 (≈ 47.7 µM) | > 10 | > 10 | > 10 | MIC ([6]; 18 h): 10 µg/mL (≈ 19.1 µM); MIC ([8]; Micrococcus luteus, 8340, 18 h): > 100 µg/mL; MIC ([12]; Pasteurella multocida, 1633, 18 h): 2.5 µg/mL (≈ 4.77 µM); MIC ([13]; 18 h): 0.5 µg/mL (≈ 0.955 µM); MIC ([15]; Haemophilus influenzae, WY21, 18 h): 1 µg/mL (≈ 1.91 µM); MIC ([24]; NCTC10662, 18 h): > 100 µg/mL; MIC [27]: 25 µg/mL (≈ 47.7 µM); MIC [28]: 10 µg/mL (≈ 19.1 µM); MIC [29]: > 80 µg/mL; MIC [30]: > 10 µg/mL; MIC [31]: 40 µg/mL (≈ 76.4 µM); MIC [32]: 10 µg/mL (≈ 19.1 µM); MIC [33]: 80 µg/mL (≈ 153 µM); MIC [34]: 5 µg/mL (≈ 9.55 µM)
2 | C/C(=C\c1ncc(-c2ccc([S+](C)[O-])cc2)o1)C[C@@H]1OC[C@H](C[C@@H]2O[C@H]2[C@@H](C)[C@H](C)O)[C@@H](O)[C@H]1O (some centres unmarked) [Example 11, 5-p-Methylsulphinylphenyl-2-(1-normon-2-yl) oxazole A] | 0.25 (≈ 0.494 µM) | > 80 | > 80 | 0.5 (≈ 0.989 µM) | 2.5 (≈ 4.94 µM) | 0.1 (≈ 0.198 µM) | > 80 | 2.5 (≈ 4.94 µM) | 0.5 (≈ 0.989 µM) | 0.625 (≈ 1.24 µM) | 0.1 (≈ 0.198 µM) | > 80 | > 80 | 0.25 (≈ 0.494 µM) | 4 (≈ 7.91 µM) | 4 (≈ 7.91 µM) | 16 (≈ 31.6 µM) | 0.25 (≈ 0.494 µM) | 0.1 (≈ 0.198 µM) | 0.25 (≈ 0.494 µM) | MIC ([6]; Strep. spp. 64/848-C, 5% chocolated horse blood agar, 18 hours, read-out: MIC): 2 µg/mL (≈ 3.96 µM); MIC ([8]; Micrococcus luteus, Sarcina lutea 8340, 5% chocolated horse blood agar, 18 hours, read-out: MIC): > 128 µg/mL; MIC ([12]; Pasteurella multocida 1633, 5% chocolated horse blood agar, 18 hours, read-out: MIC): 8 µg/mL (≈ 15.8 µM); MIC ([13]; E. coli ESS, 5% chocolated horse blood agar, 18 hours, read-out: MIC): 128 µg/mL (≈ 253 µM); MIC ([15]; Haemophilus influenzae Wy21, 5% chocolated horse blood agar, 18 hours, read-out: MIC): 4 µg/mL (≈ 7.91 µM); MIC ([24]; NCTC10662, Ps. aeruginosa NCTC 10662, 5% chocolated horse blood agar, 18 hours, read-out: MIC): > 128 µg/mL; MIC [27]: 16 µg/mL (≈ 31.6 µM); MIC [28]: 0.1 µg/mL (≈ 0.198 µM); MIC [29]: > 80 µg/mL; MIC [30]: 0.5 µg/mL (≈ 0.989 µM); MIC [31]: 40 µg/mL (≈ 79.1 µM); MIC [32]: 0.25 µg/mL (≈ 0.494 µM); MIC [33]: 5 µg/mL (≈ 9.89 µM); MIC [34]: 2.5 µg/mL (≈ 4.94 µM)
